Measurements taken from PMC10581189, “Cesin, a short natural variant of nisin, displays potent antimicrobial activity against major pathogens despite lacking two C-terminal macrocycles” (Microbiology Spectrum, 2023).
≈ marks a conversion by molar mass, not a printed value. Where two headings read alike, the source gives them in different places. Ends that are not written are not given here.

Experiments:
[1] = test system: Lactococcus lactis MG1363
[2] = test system: Listeria monocytogenes LMG10470
[3] = test system: Listeria monocytogenes TT82E
[4] = test system: Listeria monocytogenes LK132
[5] = test system: Staphylococcus aureus LMG10147
[6] = test system: Staphylococcus aureus LMG15975 (MRSA)
[7] = test system: Enterococcus faecium LMG11423
[8] = test system: Enterococcus faecium LMG16003 (VRE)
[9] = test system: Enterococcus faecalis LMG16216 (VRE)
L. lactis MG1363 = experiment: Agar well diffusion assay of cesin analogs; assay type: cell-based, Lactococcus lactis; details: for antimicrobial activity compared to cesin: L. lactis MG1363, 30°C overnight, triplicate, Fig. 5B, 6B, S1
Method: (§1) An overnight culture of test strains was added at 0.1% (vol/vol) into melted GM17 agar at 45°C and poured in plates. After agar solidification, wells of 8 mm were bored and filled with 30 µL of the lantibiotic solution. When necessary, the lantibiotic was activated with 5 µL of nisP added directly into the well. Peptides were resuspended in 0.05% aqueous acetic acid solution and the cesin amount was determined using the NanoDrop (Thermo Scientific) calibrated with the extinction coefficient predicted by ExPASy (http://web.expasy.org/protparam/). The agar plates were incubated at 30°C overnight, after which, the zones of inhibition were measured. Zone diameters were measured in millimeters and recorded as area of the zone (πr^2) minus the area of the well (πr^2) in millimeters. Where necessary, cesin was compared with nisin and nisin(1–22). Assays were performed in triplicate.

E. faecium = experiment: Agar well diffusion assay of cesin analogs; assay type: cell-based, Enterococcus faecium; details: triplicate, Fig. 5B, S1
Method: as §1

[10] = Thermal stability (residual antimicrobial activity); assay type: physicochemical
Method: as §1

[11] = test system: nisin resistance protein (NSR); details: 30 µL 0.1 mg/mL peptide, agar well, L. lactis NZ9000 (pNSR) vs L. lactis NZ9000 (pEmpty); three biological replicates; Fig. 8A
proteinase K = proteinase K (Parengyodontium album, UniProt P06873); experiment: Stability against proteinase K (residual antimicrobial activity); details: 1 mg/mL proteolytic enzyme (pH 7.2), relative antimicrobial activity against L. lactis MG1363, agar well; three biological replicates; Fig. 8B
sheep erythrocytes = experiment: Hemolytic activity assay; assay type: cell-based; details: sheep erythrocytes 2% (vol/vol) in PBS, up to 64 µg/mL, 37°C for 40 min, absorbance 420 nm relative to Triton X-100, triplicate; Fig. 9
Method: The hemolytic activity of cesin and nisin was determined as previously described ([65]). Briefly, fresh sheep blood (Sigma-Aldrich) was washed with 0.1 M PBS (pH 7.4; Sigma-Aldrich) three times to remove plasma (500 × g for 5 min), and then the erythrocytes were collected and diluted 1:50 in PBS. The lantibiotics were then added at final concentrations of 64, 32, 16, 8, 4, 2, and 0 µg/mL in PBS to wells containing 2% (vol/vol) washed erythrocytes. The cells were incubated at 37°C for 40 min, then centrifuged for 5 min at 3,100 g. The supernatants were transferred to a 96-well plate, and the absorbance was measured at a wavelength of 420 nm with a Synergy HT microplate reader (BioTek, Lucerne, Switzerland). The absorbance relative to the positive control, which was treated with 0.1% Triton X-100, was defined as the percentage of hemolysis. The analysis was carried out in triplicate.

proteinase K, sequence (P06873 106-384): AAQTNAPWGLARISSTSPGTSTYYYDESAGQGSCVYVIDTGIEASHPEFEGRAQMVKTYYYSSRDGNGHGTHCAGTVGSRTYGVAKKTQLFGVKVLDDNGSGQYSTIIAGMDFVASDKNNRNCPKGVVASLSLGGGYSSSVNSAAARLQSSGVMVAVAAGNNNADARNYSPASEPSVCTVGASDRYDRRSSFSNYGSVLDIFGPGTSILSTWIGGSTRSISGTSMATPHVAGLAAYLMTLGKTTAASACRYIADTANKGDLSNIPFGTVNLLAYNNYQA

Molecule | MIC [1] | MIC [2] | MIC [3] | MIC [4] | MIC (Bacillus cereus CH-85) | MIC [5] | MIC [6] | MIC [7] | MIC [8] | MIC [9] | antimicrobial activity compared to cesin (L. lactis MG1363) | antimicrobial activity compared to cesin (E. faecium) | resistance to the cleavage action of NSR [11] | also measured
C=C1NC(=O)[C@H]([C@@H](C)CC)NC(=O)C(NC(=O)C(=CC)NC(=O)[C@@H](N)[C@@H](C)CC)CSC[C@@H](C(=O)NC2C(=O)N3CCC[C@H]3C(=O)NCC(=O)N[C@H](C(=O)N[C@@H](CCCCN)C(=O)NC3C(=O)NCC(=O)N[C@@H](C)C(=O)N[C@@H](CC(C)C)C(=O)N[C@@H](CCSC)C(=O)NCC(=O)N[C@H](C(=O)N[C@@H](CC(N)=O)C(=O)N[C@@H](CCSC)C(=O)N[C@@H](CCCCN)C(=O)O)CSC3C)CSC2C)NC(=O)[C@H](CC(C)C)NC1=O (stereo partly shown) [Nisin(1–22), reference compound] | 1.28 µg/mL (≈ 0.598 µM) | 41.00 µg/mL (≈ 19.2 µM) | 10.25 µg/mL (≈ 4.79 µM) | 41.00 µg/mL (≈ 19.2 µM) | >41.00 µg/mL | 20.50 µg/mL (≈ 9.58 µM) | 20.50 µg/mL (≈ 9.58 µM) | 41.00 µg/mL (≈ 19.2 µM) | >41.00 µg/mL | >41.00 µg/mL |  |  |  | 
ITSWSLCTAGCITGRIMGCNMKTATCHCSIHVSK (also: bicyclic or more (positions not given here)) [cesin NMK, cesin(1–20)-nisin(21–34) hybrid] |  |  |  |  |  |  |  |  |  |  | significant loss of antimicrobial activity | significant loss of antimicrobial activity |  | antimicrobial activity compared to cesin NK (L. lactis MG1363; Fig. 5B (L. lactis MG1363 and E. faecium, sentence names no strain)): significantly higher antimicrobial activity
C=C1NC(=O)[C@H](Cc2c[nH]c3ccccc23)NC(=O)C(NC(=O)C(=CC)NC(=O)[C@@H](N)[C@@H](C)CC)CSC[C@@H](C(=O)NC2C(=O)N[C@@H](C)C(=O)NCC(=O)N[C@H](C(=O)N[C@H](C(=O)NC3C(=O)NCC(=O)N[C@@H](CCCNC(=N)N)C(=O)N[C@@H]([C@@H](C)CC)C(=O)N[C@@H](CCSC)C(=O)NCC(=O)N[C@H](C(=O)N[C@@H](CC(N)=O)C(=O)N[C@@H](CCCCN)C(=O)O)CSC3C)[C@@H](C)CC)CSC2C)NC(=O)[C@H](CC(C)C)NC1=O (stereo partly shown) [Cesin] | 0.08 µg/mL (≈ 0.0376 µM) | 2.56 µg/mL (≈ 1.2 µM) | 5.13 µg/mL (≈ 2.41 µM) | 10.25 µg/mL (≈ 4.82 µM) | 20.50 µg/mL (≈ 9.64 µM) | 5.13 µg/mL (≈ 2.41 µM) | 5.13 µg/mL (≈ 2.41 µM) | 5.13 µg/mL (≈ 2.41 µM) | 10.25 µg/mL (≈ 4.82 µM) | 5.13 µg/mL (≈ 2.41 µM) |  |  | fully resistant | thermal stability, time stable [10]: stable for up to 4 h; stability against proteinase K (proteinase K): more resistant to proteinase K
C=C(NC(=O)[C@@H](NC(=O)[C@H](Cc1c[nH]cn1)NC(=O)[C@@H](NC(=O)[C@H](CO)NC(=O)[C@@H]1CSC(C)C2NC(=O)[C@H](C)NC(=O)C(NC(=O)[C@H](CCCCN)NC(=O)[C@H](CCSC)NC(=O)[C@H](CC(N)=O)NC(=O)[C@@H]3CSC(C)C(NC(=O)[C@H](CCCCN)NC(=O)[C@@H]4CSC(C)C(NC(=O)[C@@H]5CSCC(NC(=O)C(=CC)NC(=O)[C@@H](N)[C@@H](C)CC)C(=O)N[C@@H]([C@@H](C)CC)C(=O)NC(=C)C(=O)N[C@@H](CC(C)C)C(=O)N5)C(=O)N5CCC[C@H]5C(=O)NCC(=O)N4)C(=O)NCC(=O)N[C@@H](C)C(=O)N[C@@H](CC(C)C)C(=O)N[C@@H](CCSC)C(=O)NCC(=O)N3)C(C)SC[C@H](NC2=O)C(=O)N[C@@H](CC(N)=O)C(=O)N1)[C@@H](C)CC)C(C)C)C(=O)N[C@@H](CCCCN)C(=O)O (stereo partly shown) [Nisin] |  |  |  |  |  |  |  |  |  |  |  |  | inactivated | thermal stability, time stable ([10]; incubated at 22°C, 55°C, 75°C, 95°C, read-out antimicrobial activity against L. lactis MG1363 (agar well), three biological replicates, Fig. 7A, B): stable for up to 4 h; hemolysis (sheep erythrocytes): comparable to that of nisin
ITSWSLCTAGCITGRIMGCNKTATCHCSIHVSK (also: bicyclic or more (positions not given here)) [cesin NK, cesin-nisin(23–34) hybrid] |  |  |  |  |  |  |  |  |  |  | significant loss of antimicrobial activity | significant loss of antimicrobial activity |  | 
